PubChem BioAssay AID838 (SRMLSC, 2007)
The source made the active and inactive calls. How the calls were made is not given here.

Target: Pantothenate synthetase (Mycobacterium tuberculosis (strain ATCC 25618 / H37Rv)) (UniProt P9WIL5)
Test: M. tuberculosis pantothenate synthetase inhibitors, biochemical confirmatory screen (AID 838)
Conditions: M. tuberculosis pantothenate synthetase enzyme inhibition

Sequence of Pantothenate synthetase (Mycobacterium tuberculosis (strain ATCC 25618 / H37Rv)) (P9WIL5 whole entry, looked up): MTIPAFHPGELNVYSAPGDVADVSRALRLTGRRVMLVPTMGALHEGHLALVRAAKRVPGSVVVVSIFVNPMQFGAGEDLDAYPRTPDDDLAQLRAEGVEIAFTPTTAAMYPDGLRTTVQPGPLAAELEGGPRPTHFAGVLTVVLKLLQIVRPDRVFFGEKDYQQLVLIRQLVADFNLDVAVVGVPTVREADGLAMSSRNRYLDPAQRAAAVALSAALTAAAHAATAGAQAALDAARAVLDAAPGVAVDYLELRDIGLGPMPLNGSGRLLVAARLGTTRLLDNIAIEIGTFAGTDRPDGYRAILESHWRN

| Structure (SMILES) | IC50 [nM] |
| --- | --- |
| CC(C)(C)C1CCc2onc(C(=O)Nc3cnn(Cc4ccc(I)cc4)c3)c2C1 (stereo not given) | 68 |
| CC(C)(C)C1CCc2onc(C(=O)Nc3cnn(Cc4ccc(F)cc4F)c3)c2C1 (stereo not given) | 128 |
| CC(C)(C)C1CCc2onc(C(=O)Nc3cnn(Cc4cccc(I)c4)c3)c2C1 (stereo not given) | 101 |
| COc1ccc(-c2cc(C(=O)Nc3cnn(Cc4ccccc4C)c3)no2)cc1 | 47700 |
| CC(C)(C)C1CCc2onc(C(=O)Nc3cnn(Cc4ccccc4I)c3)c2C1 (stereo not given) | 104 |
| CC(C)(C)C1CCc2onc(C(=O)Nc3cnn(Cc4ccccc4C(F)(F)F)c3)c2C1 (stereo not given) | 274 |
| CC(C)(C)c1ccc2onc(C(=O)Nc3cnn(Cc4ccc(F)cc4)c3)c2c1 | 351 |
| CC(C)(C)c1ccc2onc(C(=O)Nc3cnn(Cc4cccc(F)c4)c3)c2c1 | 640 |
| CC(C)(C)C1CCc2onc(C(=O)Nc3cnn(Cc4ccc(Cl)cc4Cl)c3)c2C1 (stereo not given) | 111 |
| Cc1ccccc1Cn1cc(NC(=O)c2noc3c2CC(C(C)(C)C)CC3)cn1 (stereo not given) | 150 |
| CC(C)(C)c1ccc2onc(C(=O)Nc3cnn(Cc4ccc(I)cc4)c3)c2c1 | 36300 |
| O=C(Nc1cnn(Cc2ccc(F)cc2)c1)c1noc2ccc(-c3ccccc3)cc12 | 108000 |

Same assay, conditions: M. tuberculosis pantothenate synthetase enzyme inhibition; at 100 µM; hits give high values

| Structure (SMILES) | inhibition |
| --- | --- |
| Cc1cc(C(=O)N2CCc3[nH]cnc3C2c2ccccc2F)no1 (stereo not given) | inactive |
| Cc1ccccc1Cn1cc(NC(=O)c2cc(-c3cccs3)on2)cn1 | inactive |
| CCCc1cc(C(=O)Nc2cnn(Cc3ccc(F)cc3)c2)no1 | inactive |
| Cc1noc(C)c1CN1C(=O)COc2cc(C(=O)NCc3ccc(C(F)(F)F)nc3)ccc21 | inactive |
| O=C(Nc1cnn(Cc2ccc(F)cc2)c1)c1noc2c1CC(c1ccccc1)CC2 (stereo not given) | inactive |
| CCN(Cc1ccncc1)CC1CCCN(C(=O)c2cc(C)on2)C1 (stereo not given) | inactive |
| Cc1ccccc1Cn1cc(NC(=O)c2cc(C3CC3)on2)cn1 | inactive |
| Cc1cc(C(=O)N2CCCC(CN3CCC(C(F)(F)F)CC3)C2)no1 (stereo not given) | inactive |
| Cc1cccc(CN2C(=O)COc3cc(C(=O)N4CCN(Cc5ccccc5)CC4)ccc32)c1 | inactive |
| Cc1cc(C(=O)N2CCCN(c3cc(-c4cc(F)ccc4C)ncn3)CC2)no1 | inactive |
| Cc1cc(C(=O)N2CCCC(CN3CCN(c4cnccn4)CC3)C2)no1 (stereo not given) | inactive |
| Cc1onc(-c2ccccc2Cl)c1C(=O)Nc1cnn(Cc2ccccc2)c1 | inactive |
| CCCN(CC1CC1)CC1CCCN(C(=O)c2cc(C)on2)C1 (stereo not given) | inactive |
| COc1cc(C(=O)Nc2cnn(Cc3cccc(I)c3)c2)cc(OC)c1OC | inactive |
| COc1cc(CN(C)C(=O)c2ccc(N3CCc4ccccc4C3)nc2)cc(OC)c1OC | inactive |
| COc1cc(CN(C)C(=O)c2ccc(N3CCC(O)(c4cccc(C(F)(F)F)c4)CC3)nc2)cc(OC)c1OC | inactive |
| O=C(Nc1cnn(Cc2ccc(F)cc2)c1)c1noc2ccccc12 | inactive |
| COc1cc(CN(C)C(=O)c2ccc(N3CCC(O)(Cc4ccccc4)CC3)nc2)cc(OC)c1OC | inactive |
| CCc1ccc(C2c3nc[nH]c3CCN2C(=O)c2cc(C)on2)cc1 (stereo not given) | inactive |

| Structure (SMILES) | inhibition |
| --- | --- |
| O=C(Cn1nc(C2CC2)cc1C(F)F)Nc1cnn(Cc2c(F)cc(F)c(F)c2F)c1 | inactive |
| COc1cccc(-c2cc(C(=O)Nc3cnn(Cc4ccccc4C)c3)no2)c1 | inactive |
| COc1cccc(C2c3nc[nH]c3CCN2C(=O)c2cc(C)on2)c1 (stereo not given) | inactive |
| Cc1ccccc1Cn1cc(NC(=O)c2cc(-c3ccco3)on2)cn1 | inactive |
| O=C(Nc1cnn(Cc2ccc(F)cc2)c1)c1cc(C2CC2)on1 | inactive |
| COc1ccccc1-c1cc(C(=O)Nc2cnn(Cc3ccccc3C)c2)no1 | inactive |
| Cc1ccccc1Cn1cc(NC(=O)c2noc3c2CCCC3)cn1 | inactive |
| Cc1cc(C(=O)N2CCc3[nH]cnc3C2c2ccc(-n3cncn3)cc2)no1 (stereo not given) | inactive |
| Cc1cc(C(=O)N2CCCN(c3cc(-c4ccc5ccccc5c4)ncn3)CC2)no1 | inactive |
| Cc1cc(C(=O)N2CCCC(CN(C)Cc3ccc(Cl)cc3)C2)no1 (stereo not given) | inactive |
| O=C(Nc1cnn(Cc2ccc(Cl)cc2Cl)c1)c1noc2c1CCCC2 | inactive |
| COCCN(CC1CCCN(C(=O)c2cc(C)on2)C1)C(C)C (stereo not given) | inactive |
| Cc1cc(C(=O)N2CCc3[nH]cnc3C2c2ccc(F)cc2)no1 (stereo not given) | inactive |
| CCOc1ccc(Cn2cc(NC(=O)C(C)(C)n3cc([N+](=O)[O-])cn3)cn2)cc1OCC | inactive |
| Cc1cc(C(=O)NCCc2nc(C(=O)NCCN(C)C)cs2)no1 | inactive |
| O=C(Nc1cnn(Cc2ccc(Cl)cc2Cl)c1)c1noc2c1CCCCC2 | inactive |
| Cc1cc(C(=O)N2CCCC(CN3CCc4ccccc4C3)C2)no1 (stereo not given) | inactive |
| O=C(Nc1cnn(Cc2ccc(F)cc2)c1)c1noc2c1CCCC2 | inactive |
| CC(C)(C)c1ccc2onc(C(=O)Nc3cnn(Cc4cccc(F)c4)c3Cl)c2c1 | inactive |
